The record followed here is US20260327204A1, “DEGRADERS OF CYCLIN-DEPENDENT KINASE 12/13, COMPOSITIONS, AND USES THEREOF” (ZHEJIANG UNIVERSITY, priority 2023, published 2026).

The target in one assay is CDK13 (Homo sapiens, UniProt Q14004). Nature of the assay: Western blot degradation of CDK13 (Example 2). In kind it is cell-based. Set-up: degradation of CDK12/13 protein in leukemia cells KASUMI-1, MV4-11, and Jurkat; endogenous in cells. To be noted: DC50 classes, cell line not given; for DC50: read-out: CDK13 degradation Activity. The procedure: (§1) Western blot was used to determine the degradation of CDK12/13 protein in leukemia cells KASUMI-1, MV4-11, and Jurkat. The two compounds with the best degradation effects were further validated for their ability to degrade CDK12/13 protein in breast cancer cells MDA-MB-231 using a concentration gradient.
CDK13, sequence (Q14004 whole entry): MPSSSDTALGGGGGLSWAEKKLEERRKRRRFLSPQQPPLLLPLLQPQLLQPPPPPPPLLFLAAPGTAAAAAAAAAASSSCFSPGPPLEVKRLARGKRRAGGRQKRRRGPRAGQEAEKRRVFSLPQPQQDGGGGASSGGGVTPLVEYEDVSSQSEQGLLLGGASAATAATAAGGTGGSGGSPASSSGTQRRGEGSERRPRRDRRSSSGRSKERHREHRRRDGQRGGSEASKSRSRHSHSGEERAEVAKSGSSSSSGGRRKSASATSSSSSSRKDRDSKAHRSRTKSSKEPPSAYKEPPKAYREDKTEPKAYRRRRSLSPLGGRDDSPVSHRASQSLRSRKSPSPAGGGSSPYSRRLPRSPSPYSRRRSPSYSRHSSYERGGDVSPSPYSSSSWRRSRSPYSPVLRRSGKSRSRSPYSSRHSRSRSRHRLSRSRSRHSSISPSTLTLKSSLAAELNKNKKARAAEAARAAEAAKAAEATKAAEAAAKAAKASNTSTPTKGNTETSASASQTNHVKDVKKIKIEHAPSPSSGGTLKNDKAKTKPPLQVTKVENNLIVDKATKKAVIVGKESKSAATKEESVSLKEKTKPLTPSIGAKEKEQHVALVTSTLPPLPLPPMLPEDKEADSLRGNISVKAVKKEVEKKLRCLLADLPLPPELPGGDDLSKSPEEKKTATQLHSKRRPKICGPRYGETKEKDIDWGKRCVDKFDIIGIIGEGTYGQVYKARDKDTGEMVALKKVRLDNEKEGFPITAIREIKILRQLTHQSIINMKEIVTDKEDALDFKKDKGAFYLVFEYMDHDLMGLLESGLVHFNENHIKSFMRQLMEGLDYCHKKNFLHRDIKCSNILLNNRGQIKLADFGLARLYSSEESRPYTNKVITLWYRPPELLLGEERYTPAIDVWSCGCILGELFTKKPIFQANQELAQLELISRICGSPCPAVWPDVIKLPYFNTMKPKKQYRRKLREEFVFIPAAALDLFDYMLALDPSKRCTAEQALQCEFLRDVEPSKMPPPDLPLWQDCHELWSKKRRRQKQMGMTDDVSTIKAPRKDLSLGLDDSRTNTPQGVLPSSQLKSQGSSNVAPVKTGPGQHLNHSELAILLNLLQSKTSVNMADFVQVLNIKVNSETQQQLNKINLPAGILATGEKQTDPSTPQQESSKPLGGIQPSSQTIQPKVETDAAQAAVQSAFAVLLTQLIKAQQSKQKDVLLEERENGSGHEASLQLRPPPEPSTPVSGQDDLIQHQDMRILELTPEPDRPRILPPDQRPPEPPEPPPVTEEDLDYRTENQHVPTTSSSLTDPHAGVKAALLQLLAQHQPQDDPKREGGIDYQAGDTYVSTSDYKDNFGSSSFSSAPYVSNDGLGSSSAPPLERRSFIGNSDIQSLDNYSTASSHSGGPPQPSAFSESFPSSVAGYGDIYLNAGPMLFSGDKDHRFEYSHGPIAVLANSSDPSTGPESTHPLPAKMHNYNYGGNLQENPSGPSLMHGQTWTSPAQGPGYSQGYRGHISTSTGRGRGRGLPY
CDK13, sequence (O75909 whole entry partner): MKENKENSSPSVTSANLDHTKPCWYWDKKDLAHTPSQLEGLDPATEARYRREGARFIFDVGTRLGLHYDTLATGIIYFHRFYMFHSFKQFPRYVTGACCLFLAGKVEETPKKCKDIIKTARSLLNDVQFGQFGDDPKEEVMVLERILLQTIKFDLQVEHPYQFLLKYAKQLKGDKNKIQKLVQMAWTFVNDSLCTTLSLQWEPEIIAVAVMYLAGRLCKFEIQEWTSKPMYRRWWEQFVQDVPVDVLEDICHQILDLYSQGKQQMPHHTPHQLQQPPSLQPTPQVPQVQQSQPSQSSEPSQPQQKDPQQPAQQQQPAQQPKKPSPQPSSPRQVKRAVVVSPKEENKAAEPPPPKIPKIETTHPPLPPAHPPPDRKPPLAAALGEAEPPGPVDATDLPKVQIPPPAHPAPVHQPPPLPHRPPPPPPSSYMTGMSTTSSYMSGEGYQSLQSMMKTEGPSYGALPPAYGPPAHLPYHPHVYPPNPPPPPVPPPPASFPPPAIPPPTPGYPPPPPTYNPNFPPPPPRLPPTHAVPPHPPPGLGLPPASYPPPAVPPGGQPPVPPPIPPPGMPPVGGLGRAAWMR
(§2) • Cell lines: KASUMI-1, MV4-11, Jurkat, or MDA-MB-231 • Culture medium: DMEM/RIPM-1640+10% Hyclone serum • Compound dissolution method: Compounds were dissolved in DMSO to prepare a 50 mM stock solution, and then diluted to the corresponding concentrations.
(§3) (1) In vitro cell culture: The selected cells were cultured in a 37 °C constant temperature incubator with 5% CO2. Once the cell density reached 70-90%, they were passaged for subsequent experiments.
(§4) (2) Cell seeding: Cells were digested, and the cell suspension was transferred to a 1.5 mL Eppendorf tube. After centrifugation at 1,000 rpm for 5 min, the cells were resuspended in 2 mL of culture medium and counted. The cell suspension was seeded in a 24-well plate at a density of 200,000 cells per well and allowed to adhere for 8-12 h.
(§5) (3) Compound treatment: The 50 mM compound stock solution was diluted with cell culture medium to a final concentration of 0.01 μM-3 μM. Cells were incubated in a 37 °C incubator with 5% CO2 for 3 h-48 h. The DMSO group served as the negative control.
(§6) At the end of the treatment time, the cells were collected and washed once with PBS. An appropriate volume of 4% SDS was added to lyse the cells, and the mixture was sonicated until no longer viscous. After centrifugation at 12,000 rpm at room temperature for 30 min, the supernatant was transferred to a new EP tube for protein quantification.
(§7) The exposure results were quantitatively analyzed using Image J software. First, the grayscale values of the bands were calculated using Image J. Then, the grayscale value of the target protein was divided by the grayscale value of the internal reference protein for normalization. The calculation formula is: […]
(§8) Where A is the grayscale value and D is the degradation rate.
(§9) In the figures, CDK12 and CDK13 are the target proteins under study, and β-Actin and GAPDH are the internal reference proteins. Internal reference proteins are used to indicate the total protein amount in each experimental group for quantitative analysis.
(In western blotting, separated proteins are transferred to a membrane and probed.)

A further assay deals with CDK12 (Homo sapiens, UniProt Q9NYV4). Nature of the assay: Western blot degradation of CDK12 (Example 2). In kind it is cell-based. More on the design: degradation of CDK12/13 protein in leukemia cells KASUMI-1, MV4-11, and Jurkat; endogenous in cells. The conditions noted are these: DC50 classes, cell line not given; for DC50: read-out: CDK12 degradation Activity. The procedure:
as §1, §2, §3, §4, §5, §6, §7, §8, §9

CDK12, sequence (Q9NYV4 whole entry): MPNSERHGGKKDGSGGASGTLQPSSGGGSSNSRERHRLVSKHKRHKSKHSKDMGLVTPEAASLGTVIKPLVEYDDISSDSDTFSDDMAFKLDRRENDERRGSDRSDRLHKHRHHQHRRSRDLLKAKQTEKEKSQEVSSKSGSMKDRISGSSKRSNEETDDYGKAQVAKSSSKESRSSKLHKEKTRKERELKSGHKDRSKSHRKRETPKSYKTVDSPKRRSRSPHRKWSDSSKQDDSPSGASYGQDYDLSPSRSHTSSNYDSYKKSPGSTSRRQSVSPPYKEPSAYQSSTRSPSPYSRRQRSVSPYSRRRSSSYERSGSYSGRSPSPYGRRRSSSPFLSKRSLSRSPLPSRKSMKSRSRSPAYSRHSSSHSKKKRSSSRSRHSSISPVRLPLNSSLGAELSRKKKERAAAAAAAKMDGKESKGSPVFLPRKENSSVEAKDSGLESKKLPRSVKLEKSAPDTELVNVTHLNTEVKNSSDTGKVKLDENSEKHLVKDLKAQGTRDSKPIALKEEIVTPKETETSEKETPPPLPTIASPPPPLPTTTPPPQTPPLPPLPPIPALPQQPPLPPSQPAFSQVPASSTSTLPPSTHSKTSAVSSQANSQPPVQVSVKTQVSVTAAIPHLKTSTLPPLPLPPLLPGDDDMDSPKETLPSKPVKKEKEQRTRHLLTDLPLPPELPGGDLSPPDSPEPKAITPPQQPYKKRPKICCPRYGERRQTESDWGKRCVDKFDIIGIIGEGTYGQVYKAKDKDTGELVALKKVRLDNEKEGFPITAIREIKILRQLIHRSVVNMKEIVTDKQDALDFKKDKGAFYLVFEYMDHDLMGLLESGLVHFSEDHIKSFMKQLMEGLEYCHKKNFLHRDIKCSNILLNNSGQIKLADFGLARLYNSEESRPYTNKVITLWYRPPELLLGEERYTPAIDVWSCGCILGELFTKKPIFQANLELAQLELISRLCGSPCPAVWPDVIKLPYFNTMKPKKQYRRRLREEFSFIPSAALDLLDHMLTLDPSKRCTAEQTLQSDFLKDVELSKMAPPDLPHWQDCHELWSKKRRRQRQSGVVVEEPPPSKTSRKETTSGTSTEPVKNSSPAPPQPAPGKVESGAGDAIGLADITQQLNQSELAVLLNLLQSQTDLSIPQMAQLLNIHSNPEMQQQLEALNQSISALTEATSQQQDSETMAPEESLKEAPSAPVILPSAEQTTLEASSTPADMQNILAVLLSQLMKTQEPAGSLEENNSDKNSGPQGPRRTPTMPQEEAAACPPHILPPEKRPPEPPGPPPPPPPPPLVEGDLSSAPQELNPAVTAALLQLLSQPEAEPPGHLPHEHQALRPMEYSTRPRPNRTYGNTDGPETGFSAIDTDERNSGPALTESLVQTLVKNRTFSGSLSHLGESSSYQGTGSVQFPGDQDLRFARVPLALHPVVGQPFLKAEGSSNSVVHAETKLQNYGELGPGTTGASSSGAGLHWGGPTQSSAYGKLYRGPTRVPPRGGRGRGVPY
CDK12, sequence (O75909 whole entry partner): as the sequence (O75909 whole entry partner) above

As for `Cc1ncsc1-c1ccc([C@H](C)NC(=O)[C@@H]2C[C@@H](O)CN2C(=O)[C@@H](NC(=O)CN2CCN(c3ccc(-c4ccc(N(C(=O)NCc5ccccc5)[C@H]5CC[C@H](Nc6ccc(C#N)cn6)CC5)cc4)cn3)CC2)C(C)(C)C)cc1` [Formula 76], the DC50 at CDK13 was less than 100 nM. On to `Cc1ncsc1-c1ccc([C@H](C)NC(=O)[C@@H]2C[C@@H](O)CN2C(=O)[C@@H](NC(=O)N2CC3(CCN(c4ccc(N(C(=O)NCc5ccccc5)[C@H]5CC[C@H](Nc6ccc(C#N)cn6)CC5)cc4)CC3)C2)C(C)(C)C)cc1` [Formula 55], for which the “CDK13 degradation Activity” value at CDK13 was “−”. Besides, at CDK12, the “CDK12 degradation Activity” value is recorded as “−”. Regarding `Cc1ncsc1-c1ccc([C@H](C)NC(=O)[C@@H]2C[C@@H](O)CN2C(=O)[C@@H](NC(=O)CN2CCN(c3ncc(-c4ccc(N(C(=O)NCc5ccccc5)[C@H]5CC[C@H](Nc6ccc(C#N)cn6)CC5)cc4)cn3)CC2)C(C)(C)C)cc1` [Formula 82], the DC50 at CDK13 and at CDK12 was less than 100 nM each time. With `Cc1ncsc1-c1ccc([C@H](C)NC(=O)[C@@H]2C[C@@H](O)CN2C(=O)[C@@H](NC(=O)CC#CC2CCN(c3ccc(N(C(=O)NCc4ccccc4)[C@H]4CC[C@H](Nc5ccc(C#N)cn5)CC4)cc3)CC2)C(C)(C)C)cc1` [Formula 20], the DC50 on CDK13 and on CDK12 was 3000 to 10000 nM in each case.

With `Cc1ncsc1-c1ccc([C@H](C)NC(=O)[C@@H]2C[C@@H](O)CN2C(=O)[C@@H](NC(=O)COCCOCCOc2ccc(-c3ccc(N(C(=O)NCc4ccccc4)[C@H]4CC[C@H](Nc5ccc(C#N)cn5)CC4)cc3)cn2)C(C)(C)C)cc1` [Formula 2], the DC50 on CDK13 is 500 to 1000 nM; at CDK12, 1000 to 3000 nM. `Cc1ncsc1-c1ccc([C@H](C)NC(=O)[C@@H]2C[C@@H](O)CN2C(=O)[C@@H](NC(=O)CC#CC2CCN(c3ccc(-c4ccc(N(C(=O)NCc5ccccc5)[C@H]5CC[C@H](Nc6ccc(C#N)cn6)CC5)cc4)cn3)CC2)C(C)(C)C)cc1` [Formula 19]: the “CDK13 degradation Activity” value on CDK13 is given as “−”. In addition, the “CDK12 degradation Activity” value on CDK12 is listed as “−”. On to `Cc1ncsc1-c1ccc([C@H](C)NC(=O)[C@@H]2C[C@@H](O)CN2C(=O)[C@@H](NC(=O)N2CCC3(CC2)CCN(c2ccc(N(C(=O)NCc4ccccc4)[C@H]4CC[C@H](Nc5ccc(C#N)cn5)CC4)cc2)CC3)C(C)(C)C)cc1` [Formula 51], for which the DC50 on CDK13 and at CDK12 was 3000 to 10000 nM throughout. Take `Cc1ncsc1-c1ccc([C@H](C)NC(=O)[C@@H]2C[C@@H](O)CN2C(=O)[C@@H](NC(=O)C2CC3(CC(Nc4ccc(-c5ccc(N(C(=O)NCc6ccccc6)[C@H]6CC[C@H](Nc7ccc(C#N)cn7)CC6)cc5)cn4)C3)C2)C(C)(C)C)cc1` (stereo partly shown) [Formula 28]: the DC50 on CDK13 and at CDK12 was 3000 to 10000 nM each time. As for `Cc1ncsc1-c1ccc([C@H](C)NC(=O)[C@@H]2C[C@@H](O)CN2C(=O)[C@@H](NC(=O)CN2CCN(c3ccc(N(C(=O)NCc4ccccc4)[C@H]4CC[C@H](Nc5ccc(C#N)cn5)CC4)cc3)CC2)C(C)(C)C)cc1` [Formula 10], the DC50 at CDK13 and at CDK12 was 1000 to 3000 nM throughout. Turning to `Cc1ncsc1-c1ccc([C@H](C)NC(=O)[C@@H]2C[C@@H](O)CN2C(=O)[C@@H](NC(=O)COCCOc2ccc(-c3ccc(N(C(=O)NCc4ccccc4)[C@H]4CC[C@H](Nc5ccc(C#N)cn5)CC4)cc3)cn2)C(C)(C)C)cc1` [Formula 1], the DC50 on CDK13 and at CDK12 was 100 to 500 nM throughout. As for `Cc1ncsc1-c1ccc([C@H](C)NC(=O)[C@@H]2C[C@@H](O)CN2C(=O)[C@@H](NC(=O)CN2CC(Oc3ccc(-c4ccc(N(C(=O)NCc5ccccc5)[C@H]5CC[C@H](Nc6ccc(C#N)cn6)CC5)cc4)cn3)C2)C(C)(C)C)cc1` [Formula 14], on CDK13, the “CDK13 degradation Activity” value is recorded as “−”. Besides, the DC50 on CDK12 lay in the range of 3000 to 10000 nM. `Cc1ncsc1-c1ccc([C@H](C)NC(=O)[C@@H]2C[C@@H](O)CN2C(=O)[C@@H](NC(=O)COCCOCCOCCOCCOc2ccc(-c3ccc(N(C(=O)NCc4ccccc4)[C@H]4CC[C@H](Nc5ccc(C#N)cn5)CC4)cc3)cn2)C(C)(C)C)cc1` [Formula 4]: the DC50 at CDK13 and on CDK12 was 3000 to 10000 nM each time. Consider `Cc1ncsc1-c1ccc([C@H](C)NC(=O)[C@@H]2C[C@@H](O)CN2C(=O)[C@@H](NC(=O)CN2CCC(COc3ccc(-c4ccc(N(C(=O)NCc5ccccc5)[C@H]5CC[C@H](Nc6ccc(C#N)cn6)CC5)cc4)cn3)CC2)C(C)(C)C)cc1` [Formula 12], for which the DC50 was 100 to 500 nM on CDK13 and 500 to 1000 nM on CDK12.

Take `N#Cc1ccc(N[C@H]2CC[C@H](N(C(=O)NCc3ccccc3)c3ccc(-c4ccc(OCCOCCNc5cccc6c5C(=O)N(C5CCC(=O)NC5=O)C6=O)nc4)cc3)CC2)nc1` (stereo partly shown) [Formula 32]: the DC50 at CDK13 is 500 to 1000 nM; on CDK12, 1000 to 3000 nM. As for `N#Cc1ccc(N[C@H]2CC[C@H](N(C(=O)NCc3ccccc3)c3ccc(N4CCN(CCNc5cccc6c5C(=O)N(C5CCC(=O)NC5=O)C6=O)CC4)cc3)CC2)nc1` (stereo partly shown) [Formula 42], the DC50 at CDK13 and at CDK12 was 1000 to 3000 nM throughout. `Cc1ncsc1-c1ccc([C@H](C)NC(=O)[C@@H]2C[C@@H](O)CN2C(=O)[C@@H](NC(=O)COCCOCCN2CCN(c3ccc(N(C(=O)NCc4ccccc4)[C@H]4CC[C@H](Nc5ccc(C#N)cn5)CC4)cc3)CC2)C(C)(C)C)cc1` [Formula 8]: the DC50 on CDK13 and at CDK12 was 500 to 1000 nM in each case. Consider `Cc1ncsc1-c1ccc([C@H](C)NC(=O)[C@@H]2C[C@@H](O)CN2C(=O)[C@@H](NC(=O)CC#CC2CN(c3ccc(-c4ccc(N(C(=O)NCc5ccccc5)[C@H]5CC[C@H](Nc6ccc(C#N)cn6)CC5)cc4)cn3)C2)C(C)(C)C)cc1` [Formula 23], for which the “CDK13 degradation Activity” value on CDK13 is reported as “−”. Moreover, on CDK12, the DC50 was in the range of 3000 to 10000 nM.

For `Cc1ncsc1-c1ccc([C@H](C)NC(=O)[C@@H]2C[C@@H](O)CN2C(=O)[C@@H](NC(=O)CN2CCN(c3ncc(-c4ccc(N(C(=O)NCc5ccccc5)[C@H]5CC[C@H](Nc6ccc(C#N)cn6)CC5)cc4)cn3)CC2)C(C)(C)C)cc1` [Formula 83], the DC50 at CDK13 and on CDK12 was less than 100 nM each time.

For the compound `Cc1ncsc1-c1ccc([C@H](C)NC(=O)[C@@H]2C[C@@H](O)CN2C(=O)[C@@H](NC(=O)Cn2cc(-c3ccc(N(C(=O)NCc4ccccc4)[C@H]4CC[C@H](Nc5ncc(C#N)cn5)CC4)cc3)ccc2=O)C(C)(C)C)cc1` [Formula 61], on CDK13, the “CDK13 degradation Activity” value is recorded as “−”. In addition, the “CDK12 degradation Activity” value at CDK12 is given as “−”.

With `Cc1ncsc1-c1ccc([C@H](C)NC(=O)[C@@H]2C[C@@H](O)CN2C(=O)[C@@H](NC(=O)CN2CCN(c3ccc(-c4ccc(N(C(=O)NCc5ccccc5)[C@H]5CC[C@H](Nc6ccc(C#N)cn6)CC5)cc4)cn3)CC2)C(C)(C)C)cc1` [Formula 74], the DC50 on CDK13 is less than 100 nM.

`Cc1ncsc1-c1ccc([C@H](C)NC(=O)[C@@H]2C[C@@H](O)CN2C(=O)[C@@H](NC(=O)CN2CCN(c3ccc(-c4ccc(N(C(=O)NCc5ccccc5)[C@H]5CC[C@H](Nc6ccc(C#N)cn6)CC5)cc4)cn3)CC2)C(C)(C)C)cc1` [Formula 71]: the DC50 at CDK13 is less than 100 nM.

As to `Cc1ncsc1-c1ccc([C@H](C)NC(=O)[C@@H]2C[C@@H](O)CN2C(=O)[C@@H](NC(=O)CN2CCN(c3ccc(-c4ccc(N(C(=O)NCc5ccccc5)[C@H]5CC[C@H](Nc6ccc(C#N)cn6)CC5)cc4)cn3)CC2)C(C)(C)C)cc1` [Formula 75], the DC50 at CDK13 was less than 100 nM. The same measure, in the same setting: next, `Cc1ncsc1-c1ccc([C@H](C)NC(=O)[C@@H]2C[C@@H](O)CN2C(=O)[C@@H](NC(=O)CN2CCN(c3ccc(-c4ccc(N(C(=O)NCc5ccccc5)[C@H]5CC[C@H](Nc6ccc(C#N)cn6)CC5)cc4)cn3)CC2)C(C)(C)C)cc1` [Formula 78]: less than 100 nM; `Cc1ncsc1-c1ccc([C@H](C)NC(=O)[C@@H]2C[C@@H](O)CN2C(=O)[C@@H](NC(=O)CN2CCN(c3ccc(-c4ccc(N(C(=O)NCc5ccccc5)[C@H]5CC[C@H](Nc6ccc(C#N)cn6)CC5)cc4)cn3)CC2)C(C)(C)C)cc1` [Formula 72]: less than 100 nM; `Cc1ncsc1-c1ccc([C@H](C)NC(=O)[C@@H]2C[C@@H](O)CN2C(=O)[C@@H](NC(=O)CN2CCN(c3ccc(-c4ccc(N(C(=O)NCc5ccccc5)[C@H]5CC[C@H](Nc6ccc(C#N)cn6)CC5)cc4)cn3)CC2)C(C)(C)C)cc1` [Formula 77]: less than 100 nM.
